Experiments:
[1] = Effect of different drying conditions on oseltamivir metabolism in spotted mouse blood; type: in vitro ADME; settings: mouse blood spiked 2000 ng/mL, 25 μL spot on Whatman FTA DMPK-C card
Experimental: (§1) FIG. 2 is a graph showing the amount of metabolized Oseltamivir in samples following different treatments. Samples A were treated according to standard procedures according to manufacturer's instructions, i.e. dried in open air for 2 hrs. Samples B were dried in closed bags with silica. Samples C were heat stabilized and subsequently dried in open air. Samples D were heat stabilized and subsequently dried in closed bags with silica. Values in FIG. 2 showing % oseltamivir metabolized are mean of three samples
as §1, with “Mouse blood was spiked with oseltamivir, 2000 ng/mL. 25 μL, blood was spotted on Whatman FTA DMPK-C card. Spots were allowed to dry under” for “FIG. 2 is a graph showing the amount of metabolized Oseltamivir in samples following”, “conditions, with our without prior heat stabilization.” for “treatments.”, “samples.” for “samples”

[2] = Stabilization of oseltamivir in mouse blood spotted on Whatman FTA DMPK-C card; type: in vitro ADME; settings: mouse blood spiked 500 ng/mL; for % oseltamivir metabolized: 25 μL spot on Whatman FTA DMPK-C card
Experimental: Oseltamivir is an oral prodrug of oseltamivir carboxylate, a selective inhibitor of viral neuramidase glycoprotein in influenza A. Oseltamivir undergoes fast bioconversion to oseltamivir carboxylate mostly by carboxylesterase 1 (CES 1).
Mouse blood was spiked with oseltamivir, 500 ng/mL. 25 μL, blood was spotted on Whatman FTA DMPK-C card. Spot were left to dry at room temperature, or heat treated using a Stabilizor™ System (Denator A B, Göteborg, Sweden) then left to dry.

## CCOC(=O)C1=C[C@@H](OC(CC)CC)[C@H](NC(C)=O)[C@@H](N)C1 [oseltamivir]
[1]; compared to drying in open air
  amount of metabolized oseltamivir, not heat stabilized, dried in closed bags with silica (Samples B): even higher amount of metabolized oseltamivir
[1]; compared to drying in open air (Samples C)
  amount of metabolized oseltamivir, heat stabilized, dried in closed bags with silica (Samples D): does not affect the amount of metabolized oseltamivir
[1]; mean of three samples
  amount of metabolized oseltamivir, heat stabilized samples (C, D) versus not heat stabilized: significant lower amount of metabolized oseltamivir
[2]; treatment: Drying at room temperature only
  % oseltamivir metabolized: 27%
[2]; treatment: Heating (Stabilizor System) then left to dry
  % oseltamivir metabolized: 3%
[2]; sample on paper, heat treated
  metabolism of the prodrug, heat treatment compared to only passive drying: strongly reduced the metabolism

Source: US20140154730A1, “METHOD FOR STABILIZATION OF FLUID BIOLOGICAL SAMPLES” (DENATOR AB, priority 2011, published 2014)
